Data as given in patent US12491187B2, “Use of MCT1 inhibitors to enhance insulin sensitivity” (H. LEE MOFFIT CANCER CENTER AND RESEARCH INSTITUTE, INC., priority 2022, dated 2025).

How the values were obtained:
Assay type in all cases: cell-based, murine
3T3-L1-shScramble cells = test: Glucose uptake (Glucose Uptake-Glo) in shScramble control cells; conditions: 1 μM for 72 hr, 175 nM insulin
Protocol: Cell Line Development: Lenti plasmid vectors containing shRNA targeting MCT1 or a shScramble sequence were purchased from Genocopia. Lentiviral particles were produced using HEK293T cells and a third-generation packaging system, MISSION Lentiviral Packaging Mix, as per manufacturer's (Sigma-Aldrich) recommendations. To generate shMCT1 cells, 3T3-L1 cells were seeded and transduced with optimized titers of freshly harvested lentivirus. 12 hr after transduction, medium was changed, and cells were allowed to recover for 24 h before being placed under antibiotic selection (2 μg/mL puromycin [Clontech]) for 3-6 days. Cells surviving antibiotic selection were harvested for both reverse transcription quantitative chain polymerase reaction (RT-qPCR) and immunoblotting analyses.
Glucose Uptake: 3T3-L1 cells were seeded and differentiated in clear bottom 96-well plates (Corning®). After differentiation, cells were treated with or without […] AZD3965 for 24 hr, 48 hr or 72 hr as illustrated in FIG. 7 (schematic outline of experimental procedure). The cells were incubated in serum free media the night before performing the assay. […] Glucose Uptake was measured using the Glucose Uptake-Glo™ Assay (Promega®) according to the manufacturer's protocol. The data generated were normalized by dividing the relative luminescence units (RLU) measured in insulin stimulated wells by vehicle treated controls. […]

3T3-L1 cells [1] = test: Oil Red O staining of lipid during preadipocyte differentiation; conditions: differentiated in the presence of 1 μM AZD3965, vs control 3T3-L1
Protocol: Differentiation Protocol: The 3T3-L1 differentiation protocol was adapted from Green and Meuth (1974) (Zebisch, K, et al. Anal. Biochem. 2012 425:88-90; Green, H, et al. Cell 1974 3:127-133). Cells were seeded at approximately 80% confluency and allowed to reach confluency prior to induction of differentiation. 1-2 days post confluency, growth media was changed to ‘day 0’ media consisting of media supplemented with 0.5 mM 1-methyl-3-isobutyl xanthine (IBMX), 1 µM dexamethasone, and 10 μg/mL insulin. On ‘day 3’ media was changed to growth media with 10 μg/mL insulin only, and on ‘day 6’ media was replaced with normal growth media. After day 6, the complete media was refreshed every 2 days. Using Oil Red O staining, RT-qPCR and immunoblotting, it was determined that 3T3-L1 cells were fully differentiated into lipid-laden adipocytes by ‘day 8’ of the protocol, as reported by others (Petersen, C, et al. Sci. Rep. 2017 7:13101; Mangum, L H, et al. Toxicol. Lett. 2015 238:65-71). All differentiation experiments were performed on cells between passage 4 and 6 to ensure differentiation efficiency was consistent. Oil Red O Staining: Cells were then fixed with 4% PFA for 10 minutes. […] 10× images of cells were taken from randomized fields of view with the Cytation 5 Cell Imaging Multi-Mode reader (BioTek Instruments). Lipid content was also quantified on the Cytation 5.

3T3-L1 cells [2] = test: Immunoblotting of adipogenic proteins during differentiation; conditions: differentiated in the presence of 1 μM AZD3965
Protocol: Differentiation Protocol: The 3T3-L1 differentiation protocol was adapted from Green and Meuth (1974) (Zebisch, K, et al. Anal. Biochem. 2012 425:88-90; Green, H, et al. Cell 1974 3:127-133). Cells were seeded at approximately 80% confluency and allowed to reach confluency prior to induction of differentiation. 1-2 days post confluency, growth media was changed to ‘day 0’ media consisting of media supplemented with 0.5 mM 1-methyl-3-isobutyl xanthine (IBMX), 1 µM dexamethasone, and 10 μg/mL insulin. On ‘day 3’ media was changed to growth media with 10 μg/mL insulin only, and on ‘day 6’ media was replaced with normal growth media. After day 6, the complete media was refreshed every 2 days. Using Oil Red O staining, RT-qPCR and immunoblotting, it was determined that 3T3-L1 cells were fully differentiated into lipid-laden adipocytes by ‘day 8’ of the protocol, as reported by others (Petersen, C, et al. Sci. Rep. 2017 7:13101; Mangum, L H, et al. Toxicol. Lett. 2015 238:65-71). All differentiation experiments were performed on cells between passage 4 and 6 to ensure differentiation efficiency was consistent.
Immunoblotting: For the collection of membrane bound proteins (i.e., MCT1), cells were lysed and the membrane fraction of protein was isolated as previously described (Sadler, J B A, et al. Preparation of a total membrane fraction from 3T3-L1 adipocytes (Cold Spring Harb. Protoc. 2016, 2016, pdb-prot083675). Briefly, cells were lysed with ice cold HES buffer (250 mM sucrose, 20 mM HEPES, 1 mM EDTA, pH7.4) containing a cocktail of protease and phosphatase inhibitors (Roche Diagnostic) and centrifuged for 5 min (500 g at 4° C.) to pellet out nuclei. The remaining supernatant (containing cytosolic and membrane bound proteins) was collected. […] For all samples, protein concentration of the lysates was measured using the BCA Protein Assay Kit (Pierce Biotechnologies). […] Bands were quantified using Image Studio™ (LI-COR Biosciences).

Cc1[nH]nc(C(F)(F)F)c1Cc1sc2c(c1C(=O)N1C[C@](C)(O)CO1)c(=O)n(C)c(=O)n2C(C)C [AZD3965, 5-[[(4S)-4-hydroxy-4-methyl-2-isoxazolidinyl]carbonyl]-3-methyl-1-(1-methylethyl)-6-[[5-methyl-3-(trifluoromethyl)-1H-pyrazol-4-yl]methyl]-thieno[2,3-d]pyrimidine-2,4 (1H, 3H)-dione]
insulin-stimulated glucose uptake (3T3-L1-shScramble cells): augmented | lipid content (Oil Red O staining) over the course of differentiation (3T3-L1 cells [1]): significantly less lipid | FABP4 protein expression during differentiation (3T3-L1 cells [2]): significantly attenuated | HSL protein expression during differentiation (3T3-L1 cells [2]): significantly attenuated | PPARγ protein expression during differentiation (3T3-L1 cells [2]): significantly attenuated
